Data from paper PMC9394284, “Discovery of Novel Dual Adenosine A2A and A1 Receptor Antagonists with 1H-Pyrazolo[3,4-d]pyrimidin-6-amine Core Scaffold as Anti-Parkinson’s Disease Agents” (Pharmaceuticals, 2022).
“Also recorded” adds a separate entry of the source.

Columns and labels:
[1] = metabolic stability in cryopreserved monkey hepatocytes
Procedure: Metabolic stability of 11o was determined in cryopreserved hepatocytes from mice, rats, dogs, monkeys and human according to the SOPs of Frontage Laboratories Inc. Briefly, cryopreserved hepatocytes for pre-clinical animals and for human (BioIVT, Westbury, NY, USA) were thawed in a 37 °C water bath with gentle shaking until ice had almost melted. The suspensions were immediately transferred to a centrifuge tube (50 mL) containing pre-warmed thawing media at 37 °C with gentle handshaking to prevent the cells from settling. Cell suspensions were centrifuged at 50× g and 4 °C for 5 min. The supernatant was discarded and the pellets were resuspended in prewarmed incubation media (5 mL) at 37 °C. The percentage of viable cells in the suspension was determined by Trypan blue staining method to ensure viability of ≥70 %. […] The samples were centrifuged and aliquots of the supernatant were analyzed for parent compounds by LC/MS/MS using suitable multiple reaction monitoring (MRM) transitions. […] The disappearance of 11o and midazolam was monitored by LC/MS/MS (MRM) analysis of the hepatocyte extracts at each time point. The peak area ratio of the analyte to internal standard was obtained for each sample and the rate of disappearance of 11o was assessed by comparing the peak area ratios at various time points to the peak area ratio obtained at t = 0. The t1/2 is obtained (using the linear portion of semi-log plot of the area ratio vs. time) and the CLint values determined using well-stirred model.

[2] = system: haloperidol-induced catalepsy; experiment: haloperidol-induced catalepsy in female rats (bar test); type: in vivo, Sprague Dawley rats
Procedure: Vehicle or varying amount of 11o (0.3, 1, 3, 10 mg/kg) was administered first, followed by IP injection of 1 mg/kg haloperidol 60 min later.
A total of 120 female Sprague Dawley rats (275~300 g) were purchased from Charles River Laboratories (Charles River, Senneville, QC, Canada) and maintained at Atuka, Inc. All animal studies were conducted at Atuka, Inc. according to CCAC guidelines and under IACUC-approved Animal Use Protocols (AUPs), with IACUC number 6606.0.3 for this study.
The catalepsy study incorporated 12 groups of rats. Ten rats were incorporated into each treatment group (total N = 120 rats). Treatments were divided over 3 consecutive treatment blocks and the order of treatments were randomized within each block and all treatments completed within that block before proceeding to the next. […] Catalepsy was assessed a further 60 min later (t = 120).
Behavior was evaluated in each animal by assessing performance on the bar test. Catalepsy was assessed 60 min following haloperidol administration (120 min following administration of vehicle, 11o or istradefylline). […] The time taken for the animal to remove both paws (decent latency) from the rod and place them back on the surface, in seconds was determined. The test was conducted in triplicate and the average of the three tests were calculated.

TA98 and TA100 = experiment: AMES bacterial reverse-mutation test; type: cell-based; conditions: up to 1867 μg/plate; TA98 and TA100, with and without S9
Procedure: The mutagenic potential of 11o was also tested by assessing its ability to reverse mutations in a bacterial mutagenesis study.
AMES bacterial reverse-mutation test was performed at Frontage laboratories inc. (Frontage laboratories, Concord, OH, USA) according to testing facility’s standard operating procedures (SOPs) following OECD guideline 471, “Bacterial Reverse Mutation Test”, and ICH S2(R1), “Guidance on Genotoxicity Testing and Data Interpretation for Pharmaceuticals Intended for Human Use”[19]. Briefly, test system was exposed to test article via plate-incorporation methodology originally described by Ames et al. and updated by Maron and Ames. […] For mutagenicity assay, TA98 and TA100 (tester strains source: Molecular Toxicology Inc. (Boone, NC, USA). TA98 lot number 5464D, part number 71–098L; TA100 lot number 5439D, part number 71–100L) was exposed to vehicle alone and at least 8 concentrations of 11o, with duplicate plates/condition, in both the presence and absence of S9 using the plate incorporation method. […] Following incubation, plates were examined for the condition of the bacterial background lawn and precipitate and recorded. Colonies were enumerated either by visually or by an automatic colony counter (Scan 1200 Automated colony counter and scan software).

SMILES: Cc1cc(Cn2ncc3c(-c4cccc(C#N)c4F)nc(N)nc32)ccc1N [11o, 3-(6-Amino-1-(4-amino-3-methylbenzyl)-1H-pyrazolo[3,4-d]pyrimidin-4-yl)-2-fluorobenzonitrile]
- CLint scaled at 1 μM ([1]; cynomolgus monkey, cryopreserved hepatocytes in suspension): 20.1 mL/min/kg
- Intrinsic Clearance ([1]; monkey hepatocytes, 1 μM 11o): 0.00558 mL/min/10^6 Cells
- half-life at 1 μM ([1]; monkey, cryopreserved hepatocytes in suspension): 2.07 h
- reversal of haloperidol-induced catalepsy (latency to step down) ([2]; 0.3, 1, 3, 10 mg/kg PO, maximum effect at 10 mg/kg, comparable to istradefylline 1 mg/kg): dose-dependently reversed haloperidol-induced catalepsy
- ED50 ([2]; Rattus norvegicus, PO 60 min before haloperidol 1 mg/kg, read-out: graded ED50, reversal of haloperidol-induced catalepsy): 3 to 10 mg/kg
- AMES mutagenicity (TA98 and TA100): did not cause any positive mutagenic response; also recorded: no mutagenicity up to 1867 μg/plate
